Measurements published in paper PMC3812073, “Partial Deletion of Chromosome 8 β-defensin Cluster Confers Sperm Dysfunction and Infertility in Male Mice” (PLoS Genetics, 2013).
No end group written: not given here.

How the values were obtained:
[1] = system: Pseudomonas aeruginosa O1 (PAO1); assay: Antimicrobial killing of Pseudomonas aeruginosa PAO1 by synthetic mature β-defensin peptides; format: cell-based; conditions: for bacterial killing after TCEP reduction: reduced peptide (TCEP), 50 µg/ml peptide, PAO1, 3 hours, compared with oxidised form
Description: The DefbΔ9/DefbΔ9 mice homozygous for the deletion have no obvious gross phenotype compared to littermate controls after 8 generations of backcrossing to C57Bl/6. No change in size, weight or appearance is apparent, except mice carrying the mutant allele have paler tails by virtue of the Agouti transgene included in the MICER vector (data not shown). β-defensins are classically known as antimicrobial peptides, so we tested the mature peptides in vitro against a Gram-negative bacterium (Pseudomonas aeruginosa, PAO1). […] Despite deleting the expression of these antimicrobials from the homozygous mice, there is no indication that the mutant mice have an increased inflammatory profile under normal animal housing conditions. There is no elevation in levels of TNF-α or IL-6 or type I interferon in sera from mutant versus wild-type mice (Figure 1D).
Supplementary file pgen.1003826.s003.tif: Figure S3 Level of antimicrobial killing against Pseudomonas aeruginosa O1 (PAO1) by the reduced and oxidized peptides. β-defensins with the mature peptide sequences (as shown in Table 1) were purchased from Almac Sciences (Scotland) Limited in an oxidised form. They were tested for their ability to kill PAO1 in 3 hours at various concentrations of peptide. […] TCEP alone had no effect on bacterial survival (data not shown). […] (TIF) Click here for additional data file.

wild-type cauda sperm [2] = assay: A23187-induced acrosome reaction of wild-type sperm, Coomassie G250 stain; format: cell-based, mouse; conditions: wild-type (+/+) sperm treated with A23187, T90 minutes, 157 of 293 sperm, untreated control 14%
Description: (§1) We treated sperm from wild-type littermates (+/+) with A23187 to release calcium and induce AR, and examined their ultrastructure by TEM at the T90 minutes time point (Figure S4).
Cauda sperm were isolated in modified Tyrode's medium, fixed in 4% formalin for 15 mins. Sperm were spun down (1000× g 5 mins) then washed once in 0.1 M ammonium acetate (pH 9.0) and resuspended in a final volume of approximately 50 µl. An aliquot of 20 µl was smeared on glass slide, allowed to air dry then stained for 2 mins with a solution of 0.22% Coomassie blue G250 (wt/v) in 50% methanol (v/v) and 10% acetic acid (v/v). Slides were washed 3 times in distilled water, air-dried and mounted in glycerol. Acrosome integrity of at least 150 sperm per animal was assessed by the presence or absence of an intense blue stain on the anterior sperm head (mean ± SD; n = 3 pairs).

sperm = conditions: 10 µM A23187; cited from earlier work
Description: We sought to understand why sperm from the DefbΔ9/DefbΔ9 have this precocious capacitation and increased spontaneous AR. Sperm require an increase in intracellular calcium, which causes hyperactivation and allows progression to the AR. Mice deleted for any of the components of the calcium CatSper (cation channels of sperm) channel are infertile due to their lack of ability to transport calcium into the cell, resulting in an inability to undergo capacitation, hyperactivation and prepare sperm for the AR [32]. Conversely, sperm exposed to a ten-fold increase in cauda epididymal calcium concent ...

wild-type cauda sperm [3] = assay: TEM of microtubule structure in tails of A23187-treated wild-type sperm; format: cell-based, mouse; conditions: wild-type cauda sperm treated with A23187 (1 µM in the Figure S4 legend), T90 minutes, 101/195 tails in focus, control 3%
Description: as §1
Epididymides and decapsulated testis were fixed with 2% paraformaldehyde (PFA), 2.5% glutaraldehyde in 0.1M sodium cacodylate buffer + 0.04% CaCl2 for 30 mins at room temperature. The tissues were cut roughly into 1 mm cubes and further fixed overnight at 4°C. Fixed cells were rinsed in 0.1M sodium cacodylate buffer + 0.4% CaCl2, post-fixed in 1% osmium tetroxide (OsO4, Agar Scientific) for one hour, and dehydrated in sequential steps of acetone (25%, 50%, 75% and 100% twice) prior to impregnation in increasing concentrations (25%, 50%, 75%) of resin (TAAB Lab Equipment) in acetone followed by 100% resin for 3 times, placed in moulds and polymerised at 60°C for 24 hrs. Ultrathin sections of 70 nm were subsequently cut using a diamond knife on a Leica EM UC7 ultramicrotome. Sections were stretched with chloroform to eliminate compression and mounted on Pioloform filmed copper grids prior to staining with 1% aqueous uranyl acetate and lead citrate (Leica). They were viewed on a Philips CM100 Compustage (FEI) Transmission Electron Microscope with images collected using an AMT CCD camera (Deben). […]

FDEKCSRVNGRCTAS-CLKNEELVALC-QKNLKCCVTVQPCGKSKSNQSDEGSGHMGTWG (disulfide) [Defb15, mature synthetic mouse β-defensin peptide]
bacterial killing after TCEP reduction [1]: unremarkable

HPGTFHVRIKCMPKMTAVFGDNCSFYSSMGDLCNNTKSVCCMVPVRMDNI (disulfide (positions not given here)) [Defb50, mature synthetic mouse β-defensin peptide, missing the second cysteine of the motif]
antimicrobial activity in either oxidised or reduced form ([1]; PAO1, Figure S3): active antimicrobials
antimicrobial activity, oxidised form ([1]; oxidised peptide, PAO1, Figure S3): poor antimicrobial activity
bacterial killing after TCEP reduction [1]: improves

O=C(O)CCP(CCC(=O)O)CCC(=O)O [TCEP, Tris (2-carboxyethyl) phosphine]
effect on bacterial survival ([1]; TCEP alone, without peptide, data not shown): no effect

CNc1ccc2oc(C[C@H]3O[C@@]4(CC[C@H]3C)O[C@H]([C@H](C)C(=O)c3ccc[nH]3)[C@H](C)C[C@H]4C)nc2c1C(=O)O [A23187]
acrosome reacted sperm (wild-type cauda sperm [2]): 53%
acrosome reaction (sperm): will undergo the AR
sperm motility (sperm): immotile
sperm with microtubule disruption (abnormal tail score) (wild-type cauda sperm [3]): 52%
